Our source for the Activity values is ChEMBL document CHEMBL4393686, “InCl3 mediated heteroarylation of indoles and their derivatization via CH activation strategy: Discovery of 2-(1H-indol-3-yl)-quinoxaline derivatives as a new class of PDE4B selective inhibitors for arthritis and/or multiple sclerosis” (Eur J Med Chem, 2019).

The data set is described as follows: Cardiotoxicity in zebrafish embryos assessed as artio-ventricular ratio at 1 to 100 uM. Type of data set: toxicity, Danio rerio.

Turning to `C=CCn1cc(-c2nc3ccccc3nc2Cl)c2cc(OC)ccc21`, the Activity entry is on record as “Non-Toxic”.
